As usually defined, the inhibition is the share of the control response that was lost under treatment.

Counter-ions that a name gives are not always drawn.

Consider 45 compounds from patent US6310095A, “Inhibitors of protein isoprenyl transferases” (University of Pittsburgh, priority 1998, dated 2001).

The target in the first assay is T1, protein farnesyltransferase (Rattus norvegicus, UniProt Q02293+Q04631).
T1 construct: Rat brain protein farnesyltransferase activity is measured; from tissue; host or cells: rat brain; purified according to Reiss et al., Cell 62:81-88 (1990), steps one through three
The assay can be described thus: in vitro inhibition of protein farnesyltransferase (scintillation proximity assay, biotin-K Ras B fragment). The class given is biochemical. To be noted: at 1 × 10^-5 M. The source says:
The ability of the compounds of the invention to inhibit protein farnesyltransferase or protein geranylgeranyltransferase can be measured according to the method of Moores, et al., J. Biol. Chem. 266: 14603 (1991) or the method of Vogt, et al., J. Biol. Chem. 270:660-664 (1995). In addition, procedures for determination of the inhibition of farnesylation of the oncogene protein Ras are described by Goldstein, et al., J. Biol. Chem., 266:15575-15578 (1991) and by Singh in U.S. Pat. No. 5,245,061.
In addition, in vitro inhibition of protein farnesyltransferase may be measured by the following procedure. Rat brain protein farnesyltransferase activity is measured using an Amersham Life Science commercial scintillation proximity assay kit and substituting a biotin-K Ras B fragment (biotin-[…]CO2 H), 0.1 mM final concentration, for the biotin-lamin substrate provided by Amersham. The enzyme is purified according to Reiss, Y., et al., Cell, 62: 81-88 (1990), utilizing steps one through three.
The % inhibition of protein farnesyltransferase was determined for representative compounds of the invention.
Background: SPA uses beads or plates that emit light when radiolabelled molecules are held near them.
For the compound `CSCC[C@H](NC(=O)c1ccc(CNCCCN2CCOCC2)cc1-c1ccccc1)C(=O)O` [Example 377], the inhibition at 10 µM was determined as 71%. Same read-out and setting: next, `CSCC[C@H](NC(=O)c1ccc(CNc2ccc(C)c(C)c2)cc1-c1ccccc1)C(=O)O` [Example 704]: 67%. Still for that read-out and setting: the result for `CSCC[C@H](NC(=O)c1ccc(CNc2cc(C)on2)cc1-c1ccccc1)C(=O)O` [Example 372] reads 69%; that for `CSCC[C@H](NC(=O)c1ccc(CNc2ccc(C(=O)c3ccccc3)cc2)cc1-c1ccccc1)C(=O)O` [Example 702], 79%. On the same count and under the same terms, the result for `COc1cc2c(cc1OC)C(CNCc1ccc(C(=O)N[C@@H](CCSC)C(=O)O)c(-c3ccccc3)c1)=CC(C1CCCCC1)C2` (stereo partly drawn) [Example 659] reads 55%. Take `COc1ccc(C(=O)Nc2ccc(C(=O)N[C@@H](CCSC)C(=O)O)c(-c3ccccc3)c2)c(O)c1` [Example 758]: the inhibition at 10 µM came to 46%.

Staying with this assay, now noted: at 1 × 10^-6 M.
Turning to `Cc1ccccc1-c1cc(CN(C2CC2)C2(CC3CCCCC3)CCC2)ccc1C(=O)N[C@@H](CCS(C)(=O)=O)C(=O)O` [Example 334], the “% inhibition of farnesyltransferase” value was 93%.

For `Cc1ccccc1-c1cc(CN(C2CC2)C2(Cc3ccccc3)CCCC2)ccc1C(=O)N[C@@H](CCS(C)(=O)=O)C(=O)O` [Example 345], the “% inhibition of farnesyltransferase” value is given as 91%.

Consider `CSCC[C@H](NC(=O)c1ccc(/C=C/c2cnccn2)cc1-c1ccccc1C)C(=O)O` [Example 495], for which the “% inhibition of farnesyltransferase” value was determined as 95%. The same measure, in the same setting: next, `CSCC[C@H](NC(=O)c1ccc(C=CCCCc2ccccc2)cc1-c1ccccc1C)C(=O)O` [Example 480]: 87%; `CSCC[C@H](NC(=O)c1ccc(S(=O)(=O)N(Cc2ccccc2)c2ccccc2)cc1-c1ccccc1C)C(=O)[O-].[Li+]` [Example 768]: 67%; `CSCC[C@H](NC(=O)c1ccc(OC/C=C(\C)CCC=C(C)C)cc1-c1ccccc1C)C(=O)O` [Example 546]: 97%. For `CSCC[C@H](NC(=O)c1ccc(OCCC23CC4CC(CC(C4)C2)C3)cc1-c1ccccc1C)C(=O)O` [Example 553], the “% inhibition of farnesyltransferase” value is given as 92%. Still for that read-out and setting: the result for `CSCC[C@H](NC(=O)c1ccc(OCCOC2CCCCC2)cc1-c1ccccc1C)C(=O)[O-].[Li+]` [Example 565] reads 94%. Consider `Cc1ccccc1-c1cc(CN(C2CC2)C2(Cc3ccccc3)CCC2)ccc1C(=O)N[C@@H](CCS(C)(=O)=O)C(=O)O` [Example 333], for which the “% inhibition of farnesyltransferase” value turned out to be 99%.

The assay is the same for the next values; noted with them: at 1 × 10^-6 M; read-out: % inhibition of farnesyltransferase.
For `CSCC[C@H](NC(=O)c1ccc(CNc2ccccc2C(N)=O)cc1-c1ccccc1)C(=O)O` [Example 644], the inhibition at 1 µM came to 54%. On the same count and under the same terms, the result for `CSCC[C@H](NC(=O)c1ccc(CN(CCc2ccccc2)Cc2ccccc2)cc1-c1ccccc1C)C(=O)O` [Example 513, N-[4-N-(2-phenylethyl)-N-benzylaminomethyl-2-(2-methylphenyl)benzoyl]methionine lithium salt] reads 96%; that for `CSCCC(NC(=O)c1ccc(NC(=O)C2CCCNC2)cc1-c1ccccc1)C(=O)O` (stereo not drawn) [Example 231, [4-(3-piperidinecarboxyamino)-2-phenylbenzoyl]methionine hydrochloride], 50%. Still for that read-out and setting: the result for `CSCC[C@H](NC(=O)c1ccc(CN(C(=O)c2ccccc2)C(CC2CCCCC2)CC2CCCCC2)cc1-c1ccccc1C)C(=O)O` [Example 910, N-[4-(N-benzoyl-N-(1,3-Dicyclohexylpropan-2-yl)aminomethyl)-2-(2-methylphenyl)-benzoyl]methionine] reads 42%; that for `CSCC[C@H](NC(=O)c1ccc(NCC(CO)(Cc2ccccc2)Cc2ccccc2)cc1-c1ccccc1C)C(=O)O` [Example 475, N-[4-N-(2,2-dibenzyl-3-hydroxypropyl)amino-2-(2-methylphenyl)benzoyl]methionine sodium salt], 21%. Take `CSCC[C@H](NC(=O)c1ccc(CNc2ccccc2Oc2ccccc2)cc1-c1ccccc1)C(=O)O` [Example 645]: the inhibition at 1 µM amounted to 37%. The same measure, in the same setting: the result for `CSCC[C@H](NC(=O)c1ccc(CN[C@H](C)CC2CCCCC2)cc1-c1ccccc1C)C(=O)O` [Example 613, N-[4-(3-cyclohexylpropan-2-ylaminomethyl)-2-(2-methylphenyl)benzoyl]methionine] reads 97%. On the same count and under the same terms, the result for `CSCC[C@H](NC(=O)c1ccc(NC(=O)C[C@H]2C[C@@H](C(C)=O)C2(C)C)cc1-c1ccccc1)C(=O)O` [Example 751] reads 32%; that for `CSCC[C@H](NC(=O)c1ccc(CNc2ccc(CCO)cc2)cc1-c1ccccc1)C(=O)O` [Example 694], 45%; that for `CSCC[C@H](NC(=O)c1ccc(CNc2ccc(S(=O)(=O)Nc3onc(C)c3C)cc2)cc1-c1ccccc1C)C(=O)O` [Example 726], 81%. Same read-out and setting: the result for `CSCC[C@H](NC(=O)c1ccc(CN(Cc2ccccc2)Cc2ccco2)cc1-c1ccccc1C)C(=O)O` [Example 504, N-[4-N-(furan-2-ylmethyl)-N-benzylaminomethyl-2-(2-methylphenyl)benzoyl]methionine lithium salt] reads 90%; that for `CSCC[C@H](NC(=O)c1ccc(CNc2ccc(N3CCCCC3)cc2)cc1-c1ccccc1C)C(=O)O` [Example 862, N-[4-N-(4-piperidin-1-ylphenyl)aminomethyl-2-(2-methylphenyl)benzoyl]methionine], 95%.

Still in this assay, the particulars now being: at 1 × 10^-7 M.
Take `COc1ccccc1COCc1ccc(C(=O)N[C@@H](CCSC)C(=O)[O-])c(-c2ccccc2C)c1.[Li+]` [Example 931]: the “% inhibition of farnesyltransferase” value worked out at 98%. Same read-out and setting: the result for `CSCC[C@H](NC(=O)c1ccc(COCc2ccc(-c3cccc(F)c3)o2)cc1-c1ccccc1C)C(=O)[O-].[Li+]` [Example 436] reads 89%; that for `CSCC[C@H](NC(=O)c1ccc(COCc2ccc(-c3ccccc3F)o2)cc1-c1ccccc1C)C(=O)[O-].[Li+]` [Example 437], 89%. Consider `CSCC[C@H](NC(=O)c1ccc(COCc2ccc(-c3ccc(F)cc3)o2)cc1-c1ccc(F)cc1Cl)C(=O)[O-].[Li+]` [Example 869], for which the “% inhibition of farnesyltransferase” value is 92%. The same measure, in the same setting: the result for `CSCC[C@H](NC(=O)c1ccc(COCc2cnco2)cc1-c1ccccc1C)C(=O)[O-].[Li+]` [Example 891] reads 94%; that for `COc1ccccc1CCOCc1ccc(C(=O)N[C@@H](CCSC)C(=O)O)c(-c2ccccc2C)c1` [Example 589], 91%; that for `CSCC[C@H](NC(=O)c1ccc(COCc2cccc3ccccc23)cc1-c1ccccc1C)C(=O)[O-].[Li+]` [Example 584], 96%. On to `CSCC[C@H](NC(=O)c1ccc(/C=C/c2ccc(Oc3ccccc3Cl)cc2)cc1-c1ccccc1C)C(=O)O` [Example 854], for which the “% inhibition of farnesyltransferase” value is 78%. Consider `C=C(C)C1CC=C(COCc2ccc(C(=O)N[C@@H](CCSC)C(=O)O)c(-c3ccccc3C)c2)CC1` (stereo partly drawn) [Example 521], for which the “% inhibition of farnesyltransferase” value is given as 94%.

The assay is the same for the next values; noted with them: at 1 × 10^-7 M; read-out: % inhibition of farnesyltransferase.
Regarding `CCSC[C@H](CC1CCCCC1)N(Cc1ccc(C(=O)N[C@@H](CCSC)C(=O)O)c(-c2ccccc2C)c1)S(=O)(=O)c1ccccc1` [Example 951], the inhibition at 0.1 µM was found to be 71%.

In the case of `CSCC[C@H](NC(=O)c1ccc(CNc2ccc(N3CCOCC3)cc2)cc1-c1ccccc1C)C(=O)O` [Example 863, N-[4-N-(4-morpholin-1-ylphenyl)aminomethyl-2-(2-methylphenyl)benzoyl]methionine], the inhibition at 0.1 µM turned out to be 72%.

Still in this assay, the particulars now being: at 1 × 10^-8 M.
In the case of `COc1cccc(COCc2ccc(C(=O)N[C@@H](CCSC)C(=O)[O-])c(-c3ccccc3C)c2)c1.[Li+]` [Example 932], the “% inhibition of farnesyltransferase” value is reported as 60%.

Take `CSCC[C@H](NC(=O)c1ccc(COCc2cccc(Cl)c2)cc1-c1ccccc1C)C(=O)[O-].[Li+]` [Example 934]: the “% inhibition of farnesyltransferase” value was 71%.

`CSCC[C@H](NC(=O)c1ccc(COCc2cnc(-c3cccc(F)c3)s2)cc1-c1ccccc1C)C(=O)[O-].[Li+]` [Example 898]: the “% inhibition of farnesyltransferase” value was 82%.

The same assay, now with this note: at 1 × 10^-8 M; read-out: % inhibition of farnesyltransferase.
With `CSCC[C@H](NC(=O)c1ccc(CN(CCC2CCCCC2)S(=O)(=O)c2ccccc2)cc1-c1ccccc1C)C(=O)O` [Example 612, N-[4-(N-benzenenesulfonyl-N-(2-cyclohexylethyl)aminomethyl)-2-(2-methylphenyl)benzoyl]methionine Lithium Salt], the inhibition at 0.01 µM worked out at 96%. Same read-out and setting: the result for `CSCC[C@H](NC(=O)c1ccc(CN[C@H](CSC2CCCCC2)CC2CCCCC2)cc1-c1ccccc1C)C(=O)O` [Example 766, lithium salt] reads 95%; that for `CSCC[C@H](NC(=O)c1ccc(CN(Cc2ccc3c(c2)OCO3)c2cncnc2)cc1-c1ccccc1C)C(=O)O` [Example 837, lithium salt], 91%. The same measure, in the same setting: next, `CCSC[C@H](CC1CCCCC1)N(C=O)Cc1ccc(C(=O)N[C@@H](CCSC)C(=O)O)c(-c2ccccc2C)c1` [Example 946, N-[4-N-(3-Cyclohexyl-1-ethylthiopropan-2-yl)-N-formylaminomethyl-2-(2-methylphenyl)benzoyl]methionine]: 52%.
